Measurements reported in patent US8207136B2, “Nucleoside compounds and methods of use thereof” (The Board of Trustees of the University of Illinois, priority 2005, dated 2012).
Read-outs that look alike come from different tables or passages of the source. Starred links: 1 amine or outer side, 2 acyl side, 3 side chain; linkers in the order of their positions; H or OH if unused. Positions of bridges follow the written chain, without caps; N, C: chain ends. Non-standard residues stand in square brackets, D forms with d. Residues, ends and D or L forms follow the SMILES beside them. Chains are numbered I, II in the order given. Actinocin(9to1) = Cc1c2oc3c(C)ccc(C(=O)[*:1])c3nc-2c(C(=O)[*:2])c(N)c1=O; NMeV = CN[C@H](C(=O)O)C(C)C; Sar = CNCC(=O)O

Legend:
RNA polymerase II = molecular target: T1, RNA polymerase II (Homo sapiens, UniProt P24928); test: Nuclear run-on assay, nuclei isolated from untreated HCT-116 cells then treated; assay type: biochemical; conditions: 50 μM ARC, 50 μM DRB or 2 μg/ml α-amanitin
T1 construct: nuclei were isolated from normally growing untreated HCT-116 cells and treated with each of these agents; endogenous in cells; host or cells: nuclei of HCT-116 colon cancer cells
Method: (§1) Run-on assays with isolated nuclei were performed as described. Briefly, cells treated with the indicated agents were lysed with hypotonic buffer (10 mM Tris-HCl pH 7.4, 10 mM NaCl and 35 mM MgCl2) and nuclei collected by centrifugation and resuspended in nuclear storage buffer (50 mM HEPES pH 8.0, 5 mM MgCl2, 0.5 mM DTT, 1 mg/ml BSA and 25% (v/v) glycerol) at about 5×10^8 nuclei/ml and stored at −80° C. Transcription reactions were performed in 200 μl volume consisting of 1×10^7 nuclei in the presence of 0.12 M KCl, 7 mM Mg(Ac)2, 25 μCi of [^32P]GTP, 500 μM ATP, UTP and CTP at 30° C. Samples were collected at various time points (18 μl/time point—0, 5, 10, 20 and 30 min) and the reaction terminated by the addition of 57 μl of Sarkosyl solution (1% Sarkosyl, 0.1 M Tris pH 8.0, 0.1 M NaCl, 10 mM EDTA and 200 μg/ml tRNA). The stopped reactions were transferred to Whatman DE81 paper, and washed four times with wash buffer (5% K2HPO4 and 0.3% Na4P2O7) for 10 min, followed by a 5-min water wash. Then the paper was briefly rinsed with 95% ethanol and allowed to dry completely. Radiation was quantitated using a liquid scintillation counter.
In order to evaluate the ability of ARC to bind to and inhibit RNA polymerase II directly (like α-amanitin) or indirectly (like DRB), nuclei were isolated from normally growing untreated HCT-116 cells and treated with each of these agents, and then assayed for rate of transcription by nuclear run-on assay.

[1] = system: LIM1215 colon cancer cells; test: Apoptosis by PI staining and flow cytometry in LIM1215 cells; assay type: cell-based, human; conditions: 50 μM, 48 hours
Method: For Flow Cytometry, cells were fixed in 70% ethanol and stored at −20° C. until further analysis. Equal numbers of fixed cells were then stained with PI solution (0.1% Triton X-100, 0.2 mg/ml DNase free RNase, 0.02 mg/ml propidium iodide) made in PBS for 15 min at 37° C. and analyzed by a flow cytometer.
In order to evaluate the extent to which ARC induces apoptosis relative to that of the other known nucleoside analog DRB, LIM1215 colon cancer cells were treated with either ARC or DRB for 48 hours.

[2] = system: RNA polymerase II transcription; test: Nuclear run-on assay, nuclei from treated HCT-116 cells; assay type: cell-based, human; conditions: HCT-116 cells treated 2 hours with 1 mM
Method: as §1
Some transcriptional inhibitors such as DRB and flavopiridol repress p21 and hdm2 while increasing p53 levels. […] To evaluate this activity, HCT-116 cells were treated with one of DMSO (control), ARC or DRB, and nuclei were isolated. These nuclei were assayed for rate of transcription either in the presence or absence of α-amanitin using the nuclear run-on assay. […] If ARC inhibits polymerase I and III transcription, the rate of transcription should be substantially lower in the ARC+α-amanitin (FIG. 2A; curve 5) when compared with DMSO+α-amanitin (FIG. 2A; curve 4). However both of these rates of transcription were similar, implying that ARC might preferentially affect only RNA polymerase II transcription.

HUVECs [3] = conditions: literature value [28]; read-out: IC50, cord formation; cited from earlier work
HUVECs [4] = conditions: literature value [28]; read-out: IC50, cell motility; cited from earlier work
p53 = test: Gel shift assay with nuclear extracts and p53 consensus probe; assay type: cell-based, human; conditions: MCF-7 nuclear extracts
Method: Either purified p53 protein or nuclear extracts were used in the gel shift assays. For preparation of nuclear extracts, cells treated either with DMSO or different agents (doxorubicin, ARC and actinomycin D) were harvested 24 hours later and lysed in hypotonic buffer (10 mM HEPES pH 7.9, 1.5 mM MgCl2, 10 mM KCl, 0.2 mM PMSF, 0.5 mM DTT, 1 mM Na3VO4, 1 mM NaF, 1 mM Aprotinin and 1 mM Leupeptin), nuclei pelleted and treated with high-salt buffer (20 mM HEPES pH 7.9, 20% (v/v) glycerol, 1.5 mM MgCl2, 0.5 M KCl, 0.2 mM EDTA, 0.2 mM PMSF, 0.5 mM DTT, 1 mM Na3VO4, 1 mM NaF, 1 mM Aprotinin and 1 mM Leupeptin). Nuclear extracts (10 μg) or purified p53 protein (100 ng) were incubated with 0.5 ng of p53 consensus double-stranded oligos (5′-TACAGAACATGTCTAAGCATGCTGGGGACT-3′; Santa Cruz Biotechnology) that were labeled with [γ^32P]ATP. As a control, anti-p53 antibody (PAb421, EMD Biosciences) was used to supershift the p53/DNA complex. The reaction mixtures were resolved on a 4% acrylamide DNA-retardation gel, dried and exposed to X-ray film in the presence of intensifying screen.
Although the effects of ARC were p53-independent, ARC did affect some properties of p53. […] This is in contrast to actinomycin D, which is known to enhance the DNA binding ability of p53 [22]. […] To determine if ARC retains p53 in the cytoplasm, which may lead to decreased binding in the gel shift assays, p53 levels in nuclear lysates were examined.

## CC[C@H](C)[C@@H]1NC(=O)CNC(=O)[C@@H]2Cc3c([nH]c4cc(O)ccc34)[S+]([O-])C[C@@H](NC(=O)CNC1=O)C(=O)N[C@@H](CC(N)=O)C(=O)N1C[C@H](O)C[C@H]1C(=O)N[C@@H]([C@@H](C)[C@@H](O)CO)C(=O)N2 (stereo in doubt) [α-amanitin]
RNA polymerase II
  rate of transcription, agent added to isolated nuclei: dramatically inhibited transcription

## OC[C@H]1O[C@@H](n2cnc3cc(Cl)c(Cl)cc32)[C@H](O)[C@@H]1O [DRB, 5,6-Dichloro-1-β-ribofuranosylbenzimidazole, reference compound]
RNA polymerase II
  rate of transcription, agent added to isolated nuclei: did not affect the rate of transcription
[1]
  apoptosis (PI staining, flow cytometry): 23.4%
[2]
  rate of transcription versus control nuclei: lower

## CO[C@@H]1[C@H](OC(=O)NC(=O)CCl)CC[C@]2(CO2)[C@H]1[C@@]1(C)O[C@@H]1CC=C(C)C [TNP-470]
HUVECs [3]
  IC50: ~700 nM
HUVECs [4]
  IC50: ~600 nM

## Cc1c2oc3c(C)ccc(C(=O)N[C@@H]4C(=O)N[C@H](C(C)C)C(=O)N5CCC[C@H]5C(=O)N(C)CC(=O)N(C)[C@@H](C(C)C)C(=O)O[C@@H]4C)c3nc-2c(C(=O)N[C@@H]2C(=O)N[C@H](C(C)C)C(=O)N3CCC[C@H]3C(=O)N(C)CC(=O)N(C)[C@@H](C(C)C)C(=O)O[C@@H]2C)c(N)c1=O [actinomycin D, reference compound] (I: T[dV]P[Sar][NMeV] / II: T[dV]P[Sar][NMeV]; ester I:1-I:C, II:1-II:C; linker I:N-II:N via Actinocin(9to1))
p53
  DNA binding ability of p53, agent alone: increased the DNA binding ability of p53
